Organism: Rattus norvegicus
Experiment: Open TG-GATES - Regimen: Single
Assay type: toxicity, organism-based, Sprague-Dawley
Set-up: regimen Single, gender Male, age 6 weeks
Conditions: in vivo, iv, route intravenous injection; for APTT / Bas / Eos / Fbg / Hb / Ht / Lym / MCH / MCHC / MCV / Mono / Neu / Plat / RBC / Ret / WBC / PT: tissue Blood; for KIDNEY_L / KIDNEY_R / KIDNEY_TOTAL: tissue Kidney; for LIVER: tissue Liver; for ALP / ALT / AST / CRE / Ca / DBIL / GLC / IP / K / Na / PL / RALB / TBIL / TC / TG / TP / gamma-GTP / BUN / LDH: tissue Plasma
[1] = 1 mg/kg, 9 h, dose level Middle
[2] = 1 mg/kg, 24 h, dose level Middle

## CISPLATIN
[1]
  TERMINAL_BW: 214.2 g
  APTT: 23.6 s
  Bas: 0%
  Eos: 0.4%
  Fbg: 267.8 mg/dL
  Hb: 12.7 g/dL
  Ht: 39.1%
  Lym: 81.8%
  MCH: 20.6 pg
  MCHC: 32.4%
  MCV: 63.7 fL
  Mono: 2.2%
  Neu: 15%
  Plat: 132.5 x10_4/uL
  RBC: 613.6 x10_4/ul
  Ret: 6.7%
  WBC: 93.8 x10_2/uL
  KIDNEY_L: 1 g
  KIDNEY_R: 1 g
  KIDNEY_TOTAL: 2 g
  LIVER: 9 g
  ALP: 1312 IU/L
  ALT: 39.2 IU/L
  AST: 73 IU/L
  CRE: 0.1 mg/dL
  Ca: 11 mg/dL
  DBIL: 0 mg/dL
  GLC: 179.2 mg/dL
  IP: 9.9 mg/dL
  K: 4.2 meq/L
  Na: 139.6 meq/L
  PL: 120.6 mg/dL
  RALB: 2.9 g/dL
  TBIL: 0.028 mg/dL
  TC: 67 mg/dL
  TG: 51.8 mg/dL
  TP: 5.3 g/dL
  gamma-GTP: 1.4 IU/L
[2]
  TERMINAL_BW: 213.8 g
  Bas: 0%
  Eos: 0.8%
  Fbg: 329 mg/dL
  MCH: 21 pg
  MCHC: 32.9%
  MCV: 63.9 fL
  Mono: 3%
  Neu: 16%
  PT: 16 s
  Plat: 128.4 x10_4/uL
  RBC: 631.8 x10_4/ul
  Ret: 5.2%
  WBC: 100.8 x10_2/uL
  KIDNEY_L: 1 g
  KIDNEY_R: 1 g
  KIDNEY_TOTAL: 2.1 g
  ALT: 46 IU/L
  BUN: 15.4 mg/dL
  CRE: 0.2 mg/dL
  DBIL: 0 mg/dL
  GLC: 183.2 mg/dL
  IP: 7.7 mg/dL
  K: 4.4 meq/L
  LDH: 163.4 IU/L
  PL: 143.6 mg/dL
  RALB: 3.1 g/dL
  TBIL: 0.014 mg/dL
  TC: 78.6 mg/dL
  TG: 85.8 mg/dL
  TP: 5.7 g/dL
  gamma-GTP: 1.6 IU/L
3 mg/kg, 3 h, dose level High
  TERMINAL_BW: 219.6 g
  APTT: 22.3 s
  Bas: 0%
  Eos: 1%
  Fbg: 271 mg/dL
  Hb: 12.7 g/dL
  Ht: 39%
  Lym: 78.4%
  MCV: 65.3 fL
  Mono: 2.8%
  PT: 15.9 s
  Plat: 130.5 x10_4/uL
  RBC: 596.8 x10_4/ul
  Ret: 6.7%
  WBC: 97.6 x10_2/uL
  KIDNEY_L: 1 g
  KIDNEY_R: 1 g
  KIDNEY_TOTAL: 1.9 g
  LIVER: 9.7 g
  ALP: 1622.8 IU/L
  ALT: 43.4 IU/L
  AST: 80.6 IU/L
  CRE: 0.2 mg/dL
  DBIL: 0 mg/dL
  GLC: 177.6 mg/dL
  IP: 9 mg/dL
  K: 4.2 meq/L
  LDH: 166.2 IU/L
  Na: 139.4 meq/L
  PL: 115 mg/dL
  RALB: 2.8 g/dL
  TBIL: 0.026 mg/dL
  TC: 64.8 mg/dL
  TG: 63.6 mg/dL
  TP: 5.2 g/dL
  gamma-GTP: 1.6 IU/L
3 mg/kg, 6 h, dose level High
  TERMINAL_BW: 210.6 g
  APTT: 22 s
  Bas: 0%
  Eos: 0.8%
  Fbg: 280.6 mg/dL
  Hb: 12.9 g/dL
  Ht: 39.8%
  MCV: 64 fL
  Mono: 2.8%
  PT: 15.3 s
  Plat: 123.5 x10_4/uL
  RBC: 623.2 x10_4/ul
  Ret: 6.2%
  WBC: 89 x10_2/uL
  KIDNEY_L: 0.9 g
  KIDNEY_R: 0.9 g
  KIDNEY_TOTAL: 1.9 g
  LIVER: 9.1 g
  ALP: 1307.8 IU/L
  ALT: 42.6 IU/L
  AST: 81 IU/L
  CRE: 0.2 mg/dL
  DBIL: 0 mg/dL
  GLC: 177.2 mg/dL
  IP: 9.5 mg/dL
  K: 4.7 meq/L
  Na: 139 meq/L
  PL: 127.8 mg/dL
  RALB: 2.9 g/dL
  TBIL: 0 mg/dL
  TC: 75 mg/dL
  TG: 79.2 mg/dL
  TP: 5.3 g/dL
  gamma-GTP: 1.8 IU/L
3 mg/kg, 9 h, dose level High
  TERMINAL_BW: 213.7 g
  APTT: 22.3 s
  Bas: 0%
  Eos: 0.6%
  Fbg: 287.4 mg/dL
  Ht: 38.5%
  Lym: 79.8%
  MCHC: 32.7%
  Mono: 1.8%
  PT: 15.4 s
  Plat: 137.7 x10_4/uL
  RBC: 615.8 x10_4/ul
  Ret: 5.4%
  WBC: 60.5 x10_2/uL
  KIDNEY_L: 1 g
  KIDNEY_R: 1 g
  KIDNEY_TOTAL: 1.9 g
  LIVER: 8.6 g
  ALP: 1222.8 IU/L
  ALT: 37.8 IU/L
  AST: 73 IU/L
  BUN: 12 mg/dL
  CRE: 0.1 mg/dL
  Ca: 11 mg/dL
  DBIL: 0 mg/dL
  GLC: 178.6 mg/dL
  IP: 9.8 mg/dL
  K: 4.4 meq/L
  LDH: 133.4 IU/L
  Na: 140.2 meq/L
  PL: 124 mg/dL
  RALB: 3 g/dL
  TBIL: 0.024 mg/dL
  TC: 70.2 mg/dL
  TG: 57 mg/dL
  TP: 5.4 g/dL
  gamma-GTP: 1.8 IU/L
3 mg/kg, 24 h, dose level High
  TERMINAL_BW: 220 g
  APTT: 22.6 s
  Bas: 0%
  Eos: 0.6%
  Fbg: 297.2 mg/dL
  Ht: 40.2%
  Lym: 87%
  MCH: 21 pg
  MCHC: 33%
  MCV: 63.8 fL
  Mono: 2.8%
  Neu: 9.4%
  Plat: 134.6 x10_4/uL
  RBC: 629.2 x10_4/ul
  Ret: 3.9%
  WBC: 73 x10_2/uL
  KIDNEY_L: 1 g
  KIDNEY_R: 1 g
  KIDNEY_TOTAL: 2 g
  LIVER: 9.6 g
  ALP: 1429.2 IU/L
  ALT: 39 IU/L
  AST: 72.4 IU/L
  BUN: 16.2 mg/dL
  CRE: 0.2 mg/dL
  DBIL: 0 mg/dL
  GLC: 181 mg/dL
  IP: 8.3 mg/dL
  K: 4.3 meq/L
  Na: 140 meq/L
  PL: 147.2 mg/dL
  RALB: 3.1 g/dL
  TBIL: 0.024 mg/dL
  TC: 89.2 mg/dL
  TG: 51.8 mg/dL
  TP: 5.5 g/dL
  gamma-GTP: 1.8 IU/L
